# Measured values reported in patent US10829730B2, “Microdevice platform recapitulating hypoxic tissue microenvironments” (UNIVERSITY OF SOUTHERN CALIFORNIA, priority 2017, dated 2020).
# “Also recorded” adds a separate entry of the source.
# Assays:
# [1] = tested on: MCF-7 human breast cancer cells; experiment: Hypoxia-activated drug assay: live-dead staining (calcein-AM / propidium iodide) of micropatterned cells, normoxic or in hypoxia microdevice; assay type: cell-based; details: 50 μM TPZ; for live-cell fraction (areal fraction of positive calcein staining), inside versus outside the 1.5 mm radius: N=3, one-way ANOVA; for cytotoxicity indicated by positive nuclear propidium iodide (PI) staining: 24 hours after 12 hours pre-conditioning
# Procedure: To assess the response of cancer cells to drug treatment under a hypoxic gradient, as well as the feasibility of the microdevice for drug screening assays, cell viability assays with TPZ treatment in the microdevice were performed. […] Cells were pre-conditioned with hypoxia in the microdevice for 12 hours, which was considered sufficient to induce cellular adaptations to hypoxia^47, before being treated with TPZ for 24 hours. […] As dead cells can be washed off in the staining process, the areal fraction of living cells with positive calcein staining was chosen as the readout for TPZ cytotoxicity. The live-cell fractions in the micropatterns inside and outside the 1.5 mm radius were quantified, which corresponds to the pillar radius.
# MCF-7 human breast cancer cells were purchased from ATCC and maintained in […] (DMEM; Thermo Fisher) supplemented with 10% fetal bovine serum (FBS; Omega Scientific), 100 U mL^−1 penicillin, and 100 μg mL^−1 streptomycin (Thermo Fisher), in a humidified incubator maintained at 37° C. and 5% CO2. Round glass coverslips (12 mm in diameter; Fisher Scientific) were immersed in hot commercial detergent, rinsed with deionized water, and dried with air. The coverslips were then treated with plasma (Harrick Plasma, Model PDC-001-HP) and silanized with 1% aminopropyltriathoxysilane (Fisher Scientific) for 15 minutes. Upon extensive rinsing, coverslips were dried with air and cured at 100° C. for 1 hour. Next, silanized coverslips were coated with 0.1 mg mL^−1 rat tail collagen type I (Corning) in 4° C. for 3 hours under shaking conditions. Micropattern designs were modeled in CorelDrawX7 (Corel Corporation) and fabricated into 250 μm thick PDMS stencils (Rogers Corporation) by a laser engraver (Epilog). Stencil design was a circular feature of 5 mm diameter cut into a 13 mm circle. Stencils were then thoroughly rinsed in 70% isopropanol and deionized water, air-dried, and aligned onto the collagen-coated coverslips. The whole substrate was blocked with 0.2% w/v pluronic F-127 (Sigma) diluted in 1×PBS, rinsed with PBS, then with DMEM. Next, 300,000 MCF-7 human breast cancer cells (ATCC) were seeded. After cells adhered, PDMS stencils were peeled off and the glass coverslips with micropatterned cancer cells were briefly rinsed^41.
# Micropatterned cells were pre-conditioned in normoxic conditions (no microdevice) or hypoxic conditions (microdevice) for 12 hours. Next, media was replaced with 50 μM TPZ (Sigma Aldrich), a hypoxia-activated anticancer prodrug, for 24 hours. Cells were rinsed with fresh media and stained for calcein-AM (Sigma Aldrich) and propidium iodide (PI) (Thermo Fisher Scientific) for 30 minutes at room temperature. Cell survival was quantified by the fraction of cells expressing positive calcein signal.
# For the drug assay, the fraction of calcein positive cells (live cells) within (corresponding to hypoxia-induced cells under the pillar) and outside (corresponding to near-normoxic cells outside the pillar) the 1.5 mm radius was quantified. The fraction of PI positive cells (dead cells) was also quantified. The respective fractions were plotted against micropattern radii, similarly to previous image analyses. All data are plotted using Prism (GraphPad Software, Inc.).
# [2] = tested on: hypoxic human cancer cells; details: hypoxic vs normoxic human cancer cells; cited from earlier work
compound,measurement,setting,value
"Nc1n[n+]([O-])c2ccccc2[n+]1[O-] [TPZ, tirapazamine]","live-cell fraction (areal fraction of positive calcein staining), inside versus outside the 1.5 mm radius","[1]; hypoxia microdevice, 24 hours",significant reduction
same,cytotoxicity indicated by positive nuclear propidium iodide (PI) staining,"[1]; hypoxic samples (microdevice), MCF-7",cytotoxicity caused by TPZ
same,fate of cells under severe hypoxia near the pillar center (live-dead staining),"[1]; microdevice, ≤0.03 mol/m^3 oxygen level by COMSOL simulation, 24 hours, MCF-7",eliminated; also recorded: death zone
same,"live-cell fraction (areal fraction of positive calcein staining), inside versus outside the 1.5 mm radius","[1]; normoxic condition (no microdevice), 24 hours",not statistically different
same,cytotoxicity indicated by positive nuclear propidium iodide (PI) staining,"[1]; normoxic samples (no microdevice), MCF-7",cytotoxicity caused by TPZ; also recorded: TPZ-induced cytotoxicity
same,selectivity at targeting hypoxic human cancer cells versus their normoxic counterparts,[2],15- to 50 fold
